In assay [1] the target is T1, SCL-12 (Caenorhabditis elegans, UniProt Q9N5N3).
T1 sequence (Q9N5N3 17-208): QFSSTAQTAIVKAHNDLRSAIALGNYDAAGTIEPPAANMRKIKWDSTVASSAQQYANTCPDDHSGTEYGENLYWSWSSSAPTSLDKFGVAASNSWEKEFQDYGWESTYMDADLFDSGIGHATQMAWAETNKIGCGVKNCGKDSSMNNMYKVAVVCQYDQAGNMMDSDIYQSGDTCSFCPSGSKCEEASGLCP
The following applies: 20 mM Tris pH 7.5, 30 mM NaCl, 0.05% Triton X-100, room temperature; 0-100 nM ligand; labelled compound.

Assay [2] deals with T1, SCL-12. Kind of assay: competition with TopFluor cholesterol fluorescence, protein captured on Q-Sepharose beads. The assay is classed as binding. Also on record: C-terminal polyhistidine tag; expressed in Sf9 insect cells (baculovirus). The following applies: 20 mM Tris pH 7.5, 30 mM NaCl, 0.05% Triton X-100, room temperature; pre-incubated with 50 or 100 nM cholesterol; competitive.

From publication PMC10808130, “Mobilization of cholesterol induces the transition from quiescence to growth in Caenorhabditis elegans through steroid hormone and mTOR signaling” (Communications Biology, 2024) come the findings set out here.

Consider `CC1=CC(C)=[N+]2C1=C(CC[C@@H](C)[C@H]1CC[C@H]3[C@@H]4CC=C5C[C@@H](O)CC[C@]5(C)[C@H]4CC[C@]13C)c1c(C)cc(C)n1[B-]2(F)F` [TopFluor cholesterol], for which the “direct fluorescence binding, protein captured on Q-Sepharose beads” value in assay [1] is reported as “Binding of TopFluor cholesterol to SCL-12 is concentration-dependent”.

Regarding `CC(C)CCC[C@@H](C)[C@H]1CC[C@H]2[C@@H]3CC=C4C[C@@H](O)CC[C@]4(C)[C@H]3CC[C@]12C` [cholesterol], the “competition with TopFluor cholesterol fluorescence, protein captured on Q-Sephar” value in assay [2] is “SCL-12 was pre-incubated with unmodified cholesterol, which decreased the binding of TopFluor cholesterol significantly”.
